Assay results taken from patent US20220273759A1, “PHARMACEUTICAL ASSOCIATION FOR CONVERTING A NEOPLASTIC CELL INTO A NON-NEOPLASTIC CELL AND USES THEREOF” (HISTIDE AG, priority 2015, published 2022).

Tests used:
[1] = tested on: human osteosarcoma cells, MG63; assay: Tumor cell recoding via quantification of pRB and p53 (immunofluorescence staining, ImageJ); type: cell-based
Protocol: The cells were first fixed for 20 min with 4% paraformaldehyde/PBS at 4° C. After fixation, the cells were permeabilized in PBS containing 1% Triton X-100 for 15 min. Protein immunofluorescent visualization was performed by first treating the cells with 1% (v/v) specific monoclonal antibodies for 1 hour at 37° C. Then the samples were incubated with Alexa Fluor® 568 or 647 (F(ab′)2 fragment of IgG(H+L)) during 30 min at room temperature. The cell nuclei were counterstained in 20 ng/mL DAPI for 10 min at room temperature.
For this type of quantification the freeware image analysis ImageJ® software was used. The raw image was first converted to an 8-bit file, and then the unsharp mask feature was used (settings 1:0.2) to remove the image background (rolling ball radius 10). After smoothing, the resulting image, which appears similar to the original photomicrograph but with minimal background, was then converted to a binary image by setting a threshold. Threshold values were determined empirically by selecting a setting, which gave the most accurate binary image for a subset of randomly selected photomicrographs. The cell area was determined by manual delineation on raw fluorescent images. Total contact area and mean contact area per cell were calculated by “analyse particules” in ImageJ®. A minimum of 50 cells per condition were analyzed.
Neoplastic cells (in this example osteosarcoma cells) were cultured on pharmaceutical associations comprising PET as a bioactive carrier and one of GFR-binding compounds of SEQ ID NO: 11 to 14, 24 to 26 and 51 to 63. A rapid (24 hours) decrease of the tumor markers was observed (FIG. 7). The adhesion checkpoint then activates the tumor suppressor proteins p53 and pRB. […]

[2] = tested on: Smad1/5/8 signaling pathway; assay: Growth factor receptor activation: western blot quantification of phospho-smad1/5/8; type: cell-based; details: Table 4; human osteosarcoma cells MG63; quantification of western blots of phospho-smad1/5/8
Protocol: After 24 hours of culture, cells were permeabilized (10% SDS, 25 mM NaCl, 10 nM pepstatin and 10 nM leupeptin in distilled water and loading buffer), boiled for 10 minutes and resolved by reducing PAGE (Invitrogen). Proteins were transferred onto nitrocellulose, blocked, and labeled with HRP-conjugated antibodies (Invitrogen). Integrin αv, α5, +3, α4, β1, β3, β5 and […] were blotted by treating the nitrocellulose with monoclonal anti-integrin (extracellular domain) αv, α5, +3, α4, β1, β3, β5 and β6 antibodies (Santa Cruz Biotechnology). Phosphor-Smad1/5/8 was blotted by treating the nitrocellulose with monoclonal anti-p-Smad1/5/8 (Santa Cruz Biotechnology). For all of the experiments the western blot was performed in triplicate, along with an additional blot for actin and coomassie blue staining to ensure constant protein load among samples.

growth factor receptors = assay: cell-based or functional assay
[3] = Table 4, MG63, quantification of pRB
[4] = Table 5, MG63, quantification of pRB
[5] = Table 6, peptide in association with PET, MG63 cells

“TKPTSTPTKLSPINMLYF (Non-cyclic GFR-binding peptide) [SEQ ID NO: 65]” was tested, and the “pRB (%)” value [1, 3] was 10%, the “pRB (%)” value [1, 4] was 10% and the “p-Smad1/5/8 (%)” value [2] was 36%.

“RNVQSRPVPTQLSPISVLYK (Non-cyclic GFR-binding peptide) [SEQ ID NO: 86]” was tested, and the “pRB (%)” value [1, 3] was 24%, the “pRB (%)” value [1, 4] was 24% and the “p-Smad1/5/8 (%)” value [2] was 26%.

For “ASAAPSSVPQALRSVKVAKV (Non-cyclic GFR-binding peptide) [SEQ ID NO: 88]”, the “pRB (%)” value [1, 3] was 18%, the “pRB (%)” value [1, 4] was 18% and the “p-Smad1/5/8 (%)” value [2] was 37%.

In the case of “KIPKASSVPQELEPLPIVYY (Non-cyclic GFR-binding peptide) [SEQ ID NO: 74]”, the “pRB (%)” value [1, 3] is reported as 9%, the “pRB (%)” value [1, 4] is reported as 9% and the “p-Smad1/5/8 (%)” value [2] is reported as 44%.

In the case of “NDEGLESVPTEEEPLTILYY (Non-cyclic GFR-binding peptide) [SEQ ID NO: 79]”, the “pRB (%)” value [1, 3] is reported as 17%, the “pRB (%)” value [1, 4] is reported as 17% and the “p-Smad1/5/8 (%)” value [2] is reported as 58%.

For “KIPKASSVPTELSPISVLYK (Non-cyclic GFR-binding peptide) [SEQ ID NO: 87]”, the “pRB (%)” value [1, 3] was 21%, the “pRB (%)” value [1, 4] was 21% and the “p-Smad1/5/8 (%)” value [2] was 32%.

With “VPTGQSAISMLYL (Non-cyclic GFR-binding peptide) [SEQ ID NO: 95]” the “pRB (%)” value [1, 3] was 17%, the “pRB (%)” value [1, 4] was 17% and the “p-Smad1/5/8 (%)” value [2] was 52%.

In the case of “KIPKASSVPTGGSNITVQIM (Non-cyclic GFR-binding peptide) [SEQ ID NO: 209]”, the “P53 (%)” value [1, 5] is reported as 45% and the “pRB (%)” value [1, 5] is reported as 11%.

In the case of “STPPTSSVPTELSPISTLYK (Non-cyclic GFR-binding peptide) [SEQ ID NO: 205]”, the “P53 (%)” value [1, 5] is reported as 41% and the “pRB (%)” value [1, 5] is reported as 20%.

For “NDEGLESVPEDLSSLSVLFF (Non-cyclic GFR-binding peptide) [SEQ ID NO: 201]”, the “P53 (%)” value [1, 5] was 29% and the “pRB (%)” value [1, 5] was 12%.

With “RVPSTSSAPTKMNAISMLYF (Non-cyclic GFR-binding peptide) [SEQ ID NO: 203]” the “P53 (%)” value [1, 5] was 31% and the “pRB (%)” value [1, 5] was 9%.

For “GIPEPSSAPVDLKPLSTLYV (Non-cyclic GFR-binding peptide) [SEQ ID NO: 206]”, the “P53 (%)” value [1, 5] was 32% and the “pRB (%)” value [1, 5] was 12%.

For “KIPKASSVSQKMEPLTMLYY (Non-cyclic GFR-binding peptide) [SEQ ID NO: 208]”, the “P53 (%)” value [1, 5] was 30% and the “pRB (%)” value [1, 5] was 12%.

“GIPEPSSAPTELSATSILYY (Non-cyclic GFR-binding peptide) [SEQ ID NO: 204]” was tested, and the “P53 (%)” value [1, 5] was 33% and the “pRB (%)” value [1, 5] was 16%.

For “AASKASSVPQEEEPLPMVYY (Non-cyclic GFR-binding peptide) [SEQ ID NO: 207]”, the “P53 (%)” value [1, 5] was 24% and the “pRB (%)” value [1, 5] was 17%.

For “RVPSTSSVPTGQSAISTLYL (Non-cyclic GFR-binding peptide) [SEQ ID NO: 202]”, the “P53 (%)” value [1, 5] was 25% and the “pRB (%)” value [1, 5] was 10%.

Work on ASASPSSVSQDLSSLSILFF [GFR-binding compound of SEQ ID NO: 68] yielded a p-Smad1/5/8 (%) (growth factor receptors) of 40%.

VVPKPSSAPTQLEPISILYL [GFR-binding compound of SEQ ID NO: 69] gave a p-Smad1/5/8 (%) (growth factor receptors) of 39%.

AVPKASSAPTKLEPISILYL [GFR-binding compound of SEQ ID NO: 70] gave a p-Smad1/5/8 (%) (growth factor receptors) of 67%.

For KVGKASSVPTKLEPISILYL [GFR-binding compound of SEQ ID NO: 71], the p-Smad1/5/8 (%) (growth factor receptors) was 66%.

Work on SSVKSQPSRVHHKPLSMLYV [GFR-binding compound of SEQ ID NO: 72] yielded a p-Smad1/5/8 (%) (growth factor receptors) of 47%.

RNVQSRPTQVQLKPLSMLYV [GFR-binding compound of SEQ ID NO: 73] showed a p-Smad1/5/8 (%) (growth factor receptors) of 48%.

For KIPKASSVPQELEPLPIVYY [GFR-binding compound of SEQ ID NO: 74], the p-Smad1/5/8 (%) (growth factor receptors) was 44%.

GIPEPSSVPQKMEPLPIVYY [GFR-binding compound of SEQ ID NO: 75] showed a p-Smad1/5/8 (%) (growth factor receptors) of 51%.

SIPKASSVPQELEPLPIVYY [GFR-binding compound of SEQ ID NO: 76] was tested, and the p-Smad1/5/8 (%) (growth factor receptors) was 54%.

Molecule ASAAPSSVPQALEPLTILYY [GFR-binding compound of SEQ ID NO: 77] has a p-Smad1/5/8 (%) (growth factor receptors) of 55%.

ASASPSSVSQDLEPLTILYY [GFR-binding compound of SEQ ID NO: 78] gave a p-Smad1/5/8 (%) (growth factor receptors) of 52%.

NDEGLESVPTEEEPLTILYY [GFR-binding compound of SEQ ID NO: 79] was tested, and the p-Smad1/5/8 (%) (growth factor receptors) was 58%.

NDEGLESVPTEESSLSILFF [GFR-binding compound of SEQ ID NO: 80] showed a p-Smad1/5/8 (%) (growth factor receptors) of 27%.

RVPSTSSAPTKTSATSVLYY [GFR-binding compound of SEQ ID NO: 81] showed a p-Smad1/5/8 (%) (growth factor receptors) of 34%.

ASAAPSSAPTALSATSVLYY [GFR-binding compound of SEQ ID NO: 82] showed a p-Smad1/5/8 (%) (growth factor receptors) of 41%.

With TVPKPSSAPTQLRSVKVAKV [GFR-binding compound of SEQ ID NO: 83] the p-Smad1/5/8 (%) (growth factor receptors) was 35%.

Molecule KVGKASSVPQKLEPLPIVYY [GFR-binding compound of SEQ ID NO: 84] has a p-Smad1/5/8 (%) (growth factor receptors) of 33%.

With KASKASSVPQKLEPLPIVYY [GFR-binding compound of SEQ ID NO: 85] the p-Smad1/5/8 (%) (growth factor receptors) was 22%.

Molecule RNVQSRPVPTQLSPISVLYK [GFR-binding compound of SEQ ID NO: 86] has a p-Smad1/5/8 (%) (growth factor receptors) of 26%.

Work on KIPKASSVPTELSPISVLYK [GFR-binding compound of SEQ ID NO: 87] yielded a p-Smad1/5/8 (%) (growth factor receptors) of 32%.

ASAAPSSVPQALRSVKVAKV [GFR-binding compound of SEQ ID NO: 88] showed a p-Smad1/5/8 (%) (growth factor receptors) of 37%.

Work on VSQDLRSVKVAKV [GFR-binding compound of SEQ ID NO: 89] yielded a p-Smad1/5/8 (%) (growth factor receptors) of 36%.

ASASPSSVPQDLRSVKVAKV [GFR-binding compound of SEQ ID NO: 90] showed a p-Smad1/5/8 (%) (growth factor receptors) of 56%.

NDEGLESVPTEERSVKVAKV [GFR-binding compound of SEQ ID NO: 91] showed a p-Smad1/5/8 (%) (growth factor receptors) of 55%.

TQVKMRPVQVRKI [GFR-binding compound of SEQ ID NO: 92] was tested, and the p-Smad1/5/8 (%) (growth factor receptors) was 44%.

For KIPKASSTPTELSPINMLYF [GFR-binding compound of SEQ ID NO: 93], the p-Smad1/5/8 (%) (growth factor receptors) was 47%.

With GIPEPSSTPTKMSPINMLYF [GFR-binding compound of SEQ ID NO: 94] the p-Smad1/5/8 (%) (growth factor receptors) was 39%.

In the case of VPTGQSAISMLYL [GFR-binding compound of SEQ ID NO: 95], the p-Smad1/5/8 (%) (growth factor receptors) is reported as 52%.

NDEGLESVPTEESAISMLYL [GFR-binding compound of SEQ ID NO: 96] showed a p-Smad1/5/8 (%) (growth factor receptors) of 78%.

With SSVKSQPSRVHHSPISILFI [GFR-binding compound of SEQ ID NO: 97] the p-Smad1/5/8 (%) (growth factor receptors) was 39%.

Work on RNVQSRPTQVQLSPISILFI [GFR-binding compound of SEQ ID NO: 98] yielded a p-Smad1/5/8 (%) (growth factor receptors) of 34%.

YVPKPSSAPTKLNAISVLYF [GFR-binding compound of SEQ ID NO: 99] gave a p-Smad1/5/8 (%) (growth factor receptors) of 66%.

Work on HVPKPSSAPTKLEPISILYL [GFR-binding compound of SEQ ID NO: 100] yielded a p-Smad1/5/8 (%) (growth factor receptors) of 75%.

SIPKASSTPTELSPINMLYF [GFR-binding compound of SEQ ID NO: 64] showed a p-Smad1/5/8 (%) (growth factor receptors) of 37%.

Molecule TKPTSTPTKLSPINMLYF [GFR-binding compound of SEQ ID NO: 65] has a p-Smad1/5/8 (%) (growth factor receptors) of 36%.

YVPKPSSTPTKLSPINMLYF [GFR-binding compound of SEQ ID NO: 66] gave a p-Smad1/5/8 (%) (growth factor receptors) of 38%.

Molecule ASAAPSSVPQALSSLSILFF [GFR-binding compound of SEQ ID NO: 67] has a p-Smad1/5/8 (%) (growth factor receptors) of 38%.
